The results in this text go back to ChEMBL document CHEMBL1909046, “DrugMatrix in vitro pharmacology data”.

One data set concerns the target D(3) dopamine receptor (Homo sapiens, UniProt P35462). Nature of the data set: DRUGMATRIX: Dopamine D3 radioligand binding (ligand: [3H] Spiperone). Type of data set: cell membranes, CHO, Membrane.
Data set [1] deals with T1, Cholecystokinin receptor type A (Homo sapiens, UniProt P32238).
T1 sequence (P32238 whole entry): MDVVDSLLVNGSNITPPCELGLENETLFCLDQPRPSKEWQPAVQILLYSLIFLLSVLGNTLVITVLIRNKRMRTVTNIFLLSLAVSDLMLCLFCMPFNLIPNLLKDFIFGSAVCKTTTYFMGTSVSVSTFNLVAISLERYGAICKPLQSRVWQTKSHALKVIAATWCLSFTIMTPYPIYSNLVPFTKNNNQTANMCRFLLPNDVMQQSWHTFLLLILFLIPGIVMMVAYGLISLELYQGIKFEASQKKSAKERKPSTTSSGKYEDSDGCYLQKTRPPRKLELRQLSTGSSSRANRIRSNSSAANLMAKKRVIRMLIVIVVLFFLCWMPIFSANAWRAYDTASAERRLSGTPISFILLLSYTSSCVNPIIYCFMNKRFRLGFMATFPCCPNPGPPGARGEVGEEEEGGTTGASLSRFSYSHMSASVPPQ
Type of data set: cell membranes, Membrane. The following applies: 1321-n1.

A further data set concerns the target Cytochrome P450 2D6 (Homo sapiens, UniProt P10635). The following applies: bti-tn-5b1-4. Note: in other assays of this panel Not Active means under 50% inhibition at 10 µM.
Data set [2] addresses Delta-type opioid receptor (Homo sapiens, UniProt P41143). Type of data set: cell membranes, HEK293, Membrane. The following applies: hek293.
For data set [3], the target named is T2, Receptor-type tyrosine-protein phosphatase C (Homo sapiens, UniProt P08575).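 Note: inhibition of CD45 enzyme activity measured using DiFMUP as substrate; in other assays of this panel Not Active means under 50% inhibition at 10 µM.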
T2 sequence (P08575 whole entry): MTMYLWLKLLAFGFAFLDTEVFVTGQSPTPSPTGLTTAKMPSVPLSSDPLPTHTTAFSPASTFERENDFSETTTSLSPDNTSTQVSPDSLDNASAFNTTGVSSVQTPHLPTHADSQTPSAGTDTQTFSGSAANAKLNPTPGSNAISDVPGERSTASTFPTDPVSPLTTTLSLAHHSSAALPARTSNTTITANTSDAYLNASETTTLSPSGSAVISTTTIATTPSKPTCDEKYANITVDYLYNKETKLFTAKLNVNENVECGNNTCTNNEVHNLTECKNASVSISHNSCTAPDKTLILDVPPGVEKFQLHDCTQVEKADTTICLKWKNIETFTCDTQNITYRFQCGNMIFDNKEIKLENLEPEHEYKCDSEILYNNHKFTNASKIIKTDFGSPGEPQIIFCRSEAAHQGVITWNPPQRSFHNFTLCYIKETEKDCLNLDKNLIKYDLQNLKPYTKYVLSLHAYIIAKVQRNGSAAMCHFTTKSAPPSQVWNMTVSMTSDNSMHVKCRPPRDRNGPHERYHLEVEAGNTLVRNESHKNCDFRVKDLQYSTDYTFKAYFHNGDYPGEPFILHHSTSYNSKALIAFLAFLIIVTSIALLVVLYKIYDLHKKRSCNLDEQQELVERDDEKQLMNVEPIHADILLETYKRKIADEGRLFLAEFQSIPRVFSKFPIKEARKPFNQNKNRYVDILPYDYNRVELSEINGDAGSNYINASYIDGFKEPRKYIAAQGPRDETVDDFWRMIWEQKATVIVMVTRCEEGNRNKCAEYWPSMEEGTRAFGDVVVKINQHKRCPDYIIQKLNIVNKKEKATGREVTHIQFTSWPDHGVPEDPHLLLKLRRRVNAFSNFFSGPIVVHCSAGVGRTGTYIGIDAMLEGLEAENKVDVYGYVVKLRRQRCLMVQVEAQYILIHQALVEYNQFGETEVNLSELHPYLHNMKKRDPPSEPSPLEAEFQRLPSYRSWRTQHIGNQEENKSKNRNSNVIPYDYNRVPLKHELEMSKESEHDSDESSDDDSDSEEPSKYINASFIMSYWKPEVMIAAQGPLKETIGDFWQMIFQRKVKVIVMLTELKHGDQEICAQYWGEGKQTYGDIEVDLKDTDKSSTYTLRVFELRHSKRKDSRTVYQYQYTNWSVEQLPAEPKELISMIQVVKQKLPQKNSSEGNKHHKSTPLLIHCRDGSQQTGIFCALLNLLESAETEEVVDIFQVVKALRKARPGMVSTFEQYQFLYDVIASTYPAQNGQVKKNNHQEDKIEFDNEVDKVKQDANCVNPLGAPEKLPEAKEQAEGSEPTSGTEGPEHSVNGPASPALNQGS
More on the design: species or system Escherichia coli.

The IC50 is the concentration needed to halve the response being measured. In general, Ki refers to the equilibrium dissociation constant of an inhibitor or competing ligand from its target.

Sequence of Delta-type opioid receptor (P41143 whole entry): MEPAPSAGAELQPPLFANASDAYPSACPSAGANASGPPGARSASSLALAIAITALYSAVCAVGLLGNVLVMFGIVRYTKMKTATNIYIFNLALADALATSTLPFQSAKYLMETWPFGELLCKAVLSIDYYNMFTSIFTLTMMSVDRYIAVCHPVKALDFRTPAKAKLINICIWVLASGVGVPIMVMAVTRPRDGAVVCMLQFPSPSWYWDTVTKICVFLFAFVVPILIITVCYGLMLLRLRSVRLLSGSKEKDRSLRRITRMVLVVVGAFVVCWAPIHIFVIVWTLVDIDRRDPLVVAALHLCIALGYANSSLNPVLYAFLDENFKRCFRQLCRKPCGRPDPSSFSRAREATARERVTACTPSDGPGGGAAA
Sequence of Cytochrome P450 2D6 (P10635 whole entry): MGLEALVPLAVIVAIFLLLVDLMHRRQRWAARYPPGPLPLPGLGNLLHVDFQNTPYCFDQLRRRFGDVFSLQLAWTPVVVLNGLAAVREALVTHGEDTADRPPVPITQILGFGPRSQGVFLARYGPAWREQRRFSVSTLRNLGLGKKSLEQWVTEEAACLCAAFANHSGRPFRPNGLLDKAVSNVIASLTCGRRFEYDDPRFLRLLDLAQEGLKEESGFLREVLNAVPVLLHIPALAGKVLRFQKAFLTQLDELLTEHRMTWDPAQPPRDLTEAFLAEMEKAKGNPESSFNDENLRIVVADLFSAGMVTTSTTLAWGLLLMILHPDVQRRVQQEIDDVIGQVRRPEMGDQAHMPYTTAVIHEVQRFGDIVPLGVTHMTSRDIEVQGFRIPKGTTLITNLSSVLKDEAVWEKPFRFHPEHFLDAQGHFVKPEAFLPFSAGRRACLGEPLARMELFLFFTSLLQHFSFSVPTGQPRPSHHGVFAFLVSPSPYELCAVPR
Sequence of D(3) dopamine receptor (P35462 whole entry): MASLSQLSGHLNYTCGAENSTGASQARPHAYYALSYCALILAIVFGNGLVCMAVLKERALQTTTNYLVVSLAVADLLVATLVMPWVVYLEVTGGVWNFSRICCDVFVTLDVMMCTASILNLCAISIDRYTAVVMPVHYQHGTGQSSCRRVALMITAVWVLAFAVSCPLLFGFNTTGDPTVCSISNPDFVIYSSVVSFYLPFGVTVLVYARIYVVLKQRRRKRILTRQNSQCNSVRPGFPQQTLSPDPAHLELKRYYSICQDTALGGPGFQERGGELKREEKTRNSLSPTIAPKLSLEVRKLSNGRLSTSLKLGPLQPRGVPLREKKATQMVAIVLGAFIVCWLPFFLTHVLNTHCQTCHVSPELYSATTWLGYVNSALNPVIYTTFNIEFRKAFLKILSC

On to `Cc1onc(-c2ccccc2Cl)c1C(=O)N[C@@H]1C(=O)N2[C@@H]1SC(C)(C)[C@@H]2C(=O)O` [CLOXACILLIN], for which the half-inhibitory concentration (IC50) result (at D(3) dopamine receptor (cho); in data set [1]; against Cytochrome P450 2D6; in data set [2]; in data set [3]) was “Not Active” each time. The inhibition constant Ki result on Cytochrome P450 2D6 is “Not Active”.
On to `CC1CC(OC(=O)C(O)c2ccccc2)CC(C)(C)C1` (stereo not drawn) [CYCLANDELATE], for which the concentration for half-maximal inhibition (IC50) result (on D(3) dopamine receptor (cho); in data set [1]; against Cytochrome P450 2D6; in data set [2]; in data set [3]) was “Not Active” in each case. Moreover, the Ki entry on Cytochrome P450 2D6 is given as “Not Active”.
`Cc1c(O)c(=O)ccn1C` [DEFERIPRONE]: the IC50 result (at D(3) dopamine receptor (cho); in data set [1]; against Cytochrome P450 2D6; in data set [2]; in data set [3]) was “Not Active” each time. Also, the Ki result on Cytochrome P450 2D6 is “Not Active”.
Regarding `CC(=O)O[C@@]12CO[C@@H]1C[C@H](O)[C@@]1(C)C(=O)[C@H](O)C3=C(C)[C@@H](OC(=O)[C@H](O)[C@@H](NC(=O)OC(C)(C)C)c4ccccc4)C[C@@](O)([C@@H](OC(=O)c4ccccc4)[C@H]21)C3(C)C.O.O.O` [DOCETAXEL], the IC50 result (at D(3) dopamine receptor (cho); in data set [1]; at Cytochrome P450 2D6; in data set [2]; in data set [3]) was “Not Active” throughout. The inhibitory constant (Ki) result at Cytochrome P450 2D6 is “Not Active”.
Consider `COc1cc2nc(N3CCN(C(=O)C4COc5ccccc5O4)CC3)nc(N)c2cc1OC` (stereo not drawn) [DOXAZOSIN], for which the IC50 entry (on D(3) dopamine receptor (cho); in data set [1]; against Cytochrome P450 2D6; in data set [2]; in data set [3]) was “Not Active” throughout. For the same molecule, at Cytochrome P450 2D6, the inhibition constant Ki entry is reported as “Not Active”.
Take `C[C@H]1c2cccc(O)c2C(=O)C2=C(O)[C@]3(O)C(=O)C(C(N)=O)=C(O)[C@@H](N(C)C)[C@@H]3[C@@H](O)[C@@H]21.O` [DOXYCYCLINE]: the 50% inhibitory concentration (IC50) entry (on D(3) dopamine receptor (cho); in data set [1]; on Cytochrome P450 2D6; in data set [2]; in data set [3]) was “Not Active” each time. The Ki result on Cytochrome P450 2D6 was “Not Active”.
Turning to `O=C(CCCN1CC=C(n2c(=O)[nH]c3ccccc32)CC1)c1ccc(F)cc1` [DROPERIDOL], the IC50 on D(3) dopamine receptor (read-out: IC50) is 2.77 nM; in data set [1], “Not Active”; against Cytochrome P450 2D6 it was “Not Active”; in data set [2] it was “Not Active”; in data set [3], “Not Active”. Moreover, the inhibition constant (Ki) at D(3) dopamine receptor (read-out: Ki) is 0.939 nM; on Cytochrome P450 2D6, “Not Active”.
Take `OC(Cn1cncn1)(Cn1cncn1)c1ccc(F)cc1F` [FLUCONAZOLE]: the IC50 result (on D(3) dopamine receptor (cho); in data set [1]; on Cytochrome P450 2D6; in data set [2]; in data set [3]) was “Not Active” in each case. Moreover, the Ki result at Cytochrome P450 2D6 is reported as “Not Active”.
Regarding `CC(C)C(=O)Nc1ccc([N+](=O)[O-])c(C(F)(F)F)c1` [FLUTAMIDE], the 50% inhibitory concentration (IC50) result (at D(3) dopamine receptor (cho); in data set [1]; at Cytochrome P450 2D6; in data set [2]; in data set [3]) was “Not Active” in each case. Also, the inhibitory constant (Ki) entry at Cytochrome P450 2D6 is listed as “Not Active”.
For the molecule `CC1(C)O[C@@H]2C[C@H]3[C@@H]4CCC5=CC(=O)CC[C@]5(C)[C@@]4(F)[C@@H](O)C[C@]3(C)[C@]2(C(=O)CCl)O1` [HALCINONIDE], the 50% inhibitory concentration (IC50) result (on D(3) dopamine receptor (cho); in data set [1]; against Cytochrome P450 2D6; in data set [2]; in data set [3]) was “Not Active” throughout. On Cytochrome P450 2D6, the inhibitory constant (Ki) entry is recorded as “Not Active”.
As for `O=c1[nH]c(=O)n([C@H]2C[C@H](O)[C@@H](CO)O2)cc1I` [IDOXURIDINE], the half-maximal inhibitory concentration (IC50) entry (on D(3) dopamine receptor (cho); in data set [1]; on Cytochrome P450 2D6; in data set [2]; in data set [3]) was “Not Active” each time. Also, the Ki entry at Cytochrome P450 2D6 is reported as “Not Active”.
Take `CC1Cc2ccccc2N1NC(=O)c1ccc(Cl)c(S(N)(=O)=O)c1` (stereo not drawn) [INDAPAMIDE]: the 50% inhibitory concentration (IC50) entry (on D(3) dopamine receptor (cho); in data set [1]; on Cytochrome P450 2D6; in data set [2]; in data set [3]) was “Not Active” throughout. In addition, the Ki entry at Cytochrome P450 2D6 is “Not Active”.
Take `Nc1nc(N)nc(-c2cc(Cl)ccc2Cl)n1.O=C(O)/C=C\C(=O)O` [IRSOGLADINE MALEATE]: the IC50 entry (at D(3) dopamine receptor (cho); in data set [1]; on Cytochrome P450 2D6; in data set [2]; in data set [3]) was “Not Active” each time. In addition, the Ki entry at Cytochrome P450 2D6 is listed as “Not Active”.
`CCC(C)n1ncn(-c2ccc(N3CCN(c4ccc(OCC5COC(Cn6cncn6)(c6ccc(Cl)cc6Cl)O5)cc4)CC3)cc2)c1=O` (stereo not drawn) [ITRACONAZOLE]: the IC50 entry (at D(3) dopamine receptor (cho); in data set [1]; on Cytochrome P450 2D6; in data set [2]; in data set [3]) was “Not Active” in each case. Also, the Ki entry on Cytochrome P450 2D6 was “Not Active”.
Turning to `Sc1ncnc2nc[nH]c12` [MERCAPTOPURINE ANHYDROUS], the concentration for half-maximal inhibition (IC50) result (on D(3) dopamine receptor (cho); in data set [1]; against Cytochrome P450 2D6; in data set [2]; in data set [3]) was “Not Active” throughout. For the same molecule, the inhibitory constant (Ki) entry at Cytochrome P450 2D6 is given as “Not Active”.
Turning to `C[C@](N)(Cc1ccc(O)c(O)c1)C(=O)O` [METHYLDOPA], the IC50 result (at D(3) dopamine receptor (cho); in data set [1]; at Cytochrome P450 2D6; in data set [2]; in data set [3]) was “Not Active” in each case. For the same molecule, on Cytochrome P450 2D6, the Ki result is “Not Active”.
Take `C[C@]12CCC(=O)C=C1CC[C@@H]1[C@@H]2CC[C@@]2(C)[C@H]1CC[C@]2(C)O` [METHYLTESTOSTERONE]: the 50% inhibitory concentration (IC50) result (at D(3) dopamine receptor (cho); in data set [1]; at Cytochrome P450 2D6; in data set [2]; in data set [3]) was “Not Active” throughout. For the same molecule, the Ki result at Cytochrome P450 2D6 is “Not Active”.
`Cc1ccccc1N1C(=O)c2cc(S(N)(=O)=O)c(Cl)cc2NC1C` (stereo not drawn) [METOLAZONE]: the half-maximal inhibitory concentration (IC50) result (at D(3) dopamine receptor (cho); in data set [1]; against Cytochrome P450 2D6; in data set [2]; in data set [3]) was “Not Active” each time. For the same molecule, the Ki result on Cytochrome P450 2D6 is recorded as “Not Active”.
On to `COCCc1ccc(OCC(O)CNC(C)C)cc1` (stereo not drawn) [METOPROLOL], for which the IC50 entry (at D(3) dopamine receptor (cho); in data set [1]; against Cytochrome P450 2D6; in data set [2]; in data set [3]) was “Not Active” in each case. For the same molecule, the Ki entry on Cytochrome P450 2D6 is “Not Active”.
With `CCn1cc(C(=O)O)c(=O)c2cc(F)c(N3CCNCC3)cc21` [NORFLOXACIN], the IC50 entry (on D(3) dopamine receptor (cho); in data set [1]; at Cytochrome P450 2D6; in data set [2]; in data set [3]) was “Not Active” in each case. In addition, the Ki result on Cytochrome P450 2D6 was “Not Active”.
Turning to `NC1=NC(=O)C(c2ccccc2)O1` (stereo not drawn) [PEMOLINE], the IC50 entry (on D(3) dopamine receptor (cho); in data set [1]; on Cytochrome P450 2D6; in data set [2]; in data set [3]) was “Not Active” throughout. The Ki result at Cytochrome P450 2D6 is on record as “Not Active”.
On to `Nc1nc2c(ncn2CCC(CO)CO)c(=O)[nH]1` [PENCICLOVIR], for which the IC50 result (at D(3) dopamine receptor (cho); in data set [1]; on Cytochrome P450 2D6; in data set [2]; in data set [3]) was “Not Active” each time. The Ki result on Cytochrome P450 2D6 is “Not Active”.
